Legend:
PPARγ LBD = biological target: T1, PPARγ LBD (Homo sapiens, UniProt P37231); test: LBD-hPPARs transactivation assay (GAL4-LBD luciferase reporter in COS-7 cells); format: cell-based; settings: 48 h
T1 construct: expressed in transfected cells; host or cells: COS-7
T1 sequence (P37231 238-503 limits assumed): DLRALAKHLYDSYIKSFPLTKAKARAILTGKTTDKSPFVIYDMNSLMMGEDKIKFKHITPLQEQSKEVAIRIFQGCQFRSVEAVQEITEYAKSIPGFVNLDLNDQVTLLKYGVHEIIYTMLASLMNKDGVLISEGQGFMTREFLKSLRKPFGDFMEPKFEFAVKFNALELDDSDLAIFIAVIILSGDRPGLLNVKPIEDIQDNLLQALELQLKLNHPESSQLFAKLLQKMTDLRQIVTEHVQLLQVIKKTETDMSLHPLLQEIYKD
Description: LBD-hPPARs Transactivation Assay
COS-7 cells were cultivated in 24-well plates and transfected with the pFACMV plasmids that encode the chimeric proteins containing the GAL4 DNA binding domain fused to the PPARγ LBD. The reporter plasmid for the foregoing constructions was pFR-Luc, which contains five repetitions of the GAL4-response element in front of a promoter that controls the transcription of the luciferase gene. Lipofectamine was used as a transfection agent.
The plasmids of the chimeric receptors and the reporter gene were inserted in the cells by transitory transfection in COS-7 cells in culture.

GST-hPPARγ2 = biological target: T2, GST-hPPARγ2 (Homo sapiens, UniProt P37231); test: Assay of binding to the PPARγ2 ([3H]BRL-49853 displacement); settings: Table 19; GST-hPPARγ2, [3H]BRL-49853 100 nM; read-out: Affinity PPARγ(1)
T2 construct: the complete cDNA of the […] human PPARs were cloned into pGEX4T2; made in house; host or cells: Escherichia coli BL21 (DE3)
T2 sequence (P37231 1-505): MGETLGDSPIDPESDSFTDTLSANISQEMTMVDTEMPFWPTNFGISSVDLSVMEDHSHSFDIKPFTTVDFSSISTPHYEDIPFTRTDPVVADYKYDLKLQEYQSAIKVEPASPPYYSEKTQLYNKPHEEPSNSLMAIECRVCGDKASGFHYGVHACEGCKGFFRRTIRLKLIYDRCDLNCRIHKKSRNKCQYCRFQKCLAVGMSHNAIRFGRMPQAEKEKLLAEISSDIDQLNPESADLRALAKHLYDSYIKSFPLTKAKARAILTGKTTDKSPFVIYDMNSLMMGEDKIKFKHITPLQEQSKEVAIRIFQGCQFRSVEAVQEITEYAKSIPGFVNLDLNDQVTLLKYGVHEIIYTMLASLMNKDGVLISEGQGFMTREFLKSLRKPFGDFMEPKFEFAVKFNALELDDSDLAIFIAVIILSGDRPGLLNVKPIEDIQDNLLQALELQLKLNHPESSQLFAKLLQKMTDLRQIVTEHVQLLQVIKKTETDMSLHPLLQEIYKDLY
Procedure: Assay of Binding to the PPARγ2
The cDNA encoding for the open reading frame of the hPPARγ2 is amplified by PCR (polymerase chain reaction) and inserted in the plasmid pGEX-4T-2.
The reaction mixture was transferred to a Multiscreen Durapore (Millipore) microplate containing glutathione-Sepharose 4B in every well. The reaction mixture was left to incubate with the resin during 10 min, and then centrifuged at 735 g during 2 min. To dissociate the receptor bound to the resin, reduced glutathione 10 mM is added and incubated during 10 min. The receptor was eluted by centrifugation. Then, 800 μL of scintillation liquid were added to the elution and the contained radioactivity was quantified by liquid scintillation spectroscopy (Microbeta Wallac, Perkin Elmer).

| Compound | Functional activity PPARγ (PPARγ LBD) | Ki (GST-hPPARγ2) [nM] |
| --- | --- | --- |
| O=C(N[C@H](Cc1c[nH]c2ccccc12)C(=O)O)c1ccc(OCCN(Cc2ccccc2)Cc2ccccc2)cc1 [Example 131, (2R)-2-[4-(2-Dibenzylaminoethoxy)benzoylamino]-3-(1H-indol-3-yl)propionic acid] | Partial agonist | 1000 to 3000 |
| O=C(NC(Cc1ccc(-c2ccccc2)cc1)C(=O)O)c1ccc(OCCN(Cc2ccccc2)Cc2ccccc2)cc1 (centres unmarked) [Example 136, 3-Biphenyl-4-yl-2-[4-(2-dibenzylaminoethoxy)benzoylamino]propionic acid] | Antagonist | 1000 to 3000 |
| O=C(NC(Cc1cccc(Oc2ccccc2)c1)C(=O)O)c1ccc(OCCN(Cc2ccccc2)Cc2ccccc2)cc1 (centres unmarked) [Example 141, 2-[4-(2-Dibenzylaminoethoxy)benzoylamino]-3-(3-phenoxyphenyl)propionic acid] | Antagonist | 1000 to 3000 |
| O=C(NC(Cc1c[nH]c2ccc(Br)cc12)C(=O)O)c1ccc(OCCN(Cc2ccccc2)Cc2ccccc2)cc1 (centres unmarked) [Example 142, 3-(5-Bromo-1H-indol-3-yl)-2-[4-(2-dibenzylaminoethoxy)benzoylamino]propionic acid] | Antagonist | 1000 to 3000 |
| O=C(N[C@@H](Cc1ccc(OCc2ccccc2)cc1)C(=O)O)c1cccc(OCc2cccc(OCc3ccccc3)c2)c1 [Example 145, (2S)-2-[3-(3-Benzyloxybenzyloxy)benzoylamino]-3-(4-benzyloxyphenyl)propionic acid] | Antagonist | 1000 to 3000 |
| O=C(O)CN(Cc1cccc(Oc2ccccc2)c1)C(=O)c1ccc(OCCN(Cc2ccccc2)Cc2ccccc2)cc1 [Example 146, {[4-(2-Dibenzylaminoethoxy)benzoyl]-(3-phenoxybenzyl)amino}acetic acid] | Antagonist | 1000 to 3000 |
| O=C(N[C@@H](Cc1ccc(OCc2ccccc2)cc1)C(=O)O)c1ccc(OCCCc2ccccc2)cc1 [Example 153, (2S)-3-(4-Benzyloxyphenyl)-2-[4-(3-phenylpropoxy)benzoylamino]propionic acid] | Partial agonist | 1000 to 3000 |
| Cc1nc2ccccc2nc1OCCOc1ccc(C(=O)N[C@@H](Cc2ccc(OCc3ccccc3)cc2)C(=O)O)cc1 [Example 160, (2S)-3-(4-Benzyloxyphenyl)-2-{4-[2-(3-methylquinoxalin-2-yloxy)ethoxy]benzoylamino}propionic acid] | Partial agonist | > 3000 |
| O=C(N[C@@H](Cc1ccc(OCc2ccccc2)cc1)C(=O)O)c1ccc(OCCOc2cccc(Br)c2)cc1 [Example 161, (2S)-3-(4-Benzyloxyphenyl)-2-{4-[2-(3-bromophenoxy)ethoxy]benzoylamino}propionic acid] | Antagonist | 1000 to 3000 |
| O=C(O)CCN(Cc1ccc(OCc2ccccc2)cc1)C(=O)c1cccc(OCCN(Cc2ccccc2)Cc2ccccc2)c1 [Example 164, 3-{(4-Benzyloxybenzyl)-[3-(2-dibenzylaminoethoxy)benzoyl]amino}propionic acid] | Antagonist | 1000 to 3000 |
| Cc1nc2ccccc2nc1OCCOc1ccc(C(=O)N(CCC(=O)O)Cc2cccc(OCc3ccccc3)c2)cc1 [Example 170, 3-{(3-Benzyloxybenzyl)-{4-[2-(3-methylquinoxalin-2-yloxy)ethoxy]benzoyl}amino}propionic acid] | Antagonist | 1000 to 3000 |
| O=C(N[C@@H](Cc1ccc(OCc2ccccc2)cc1)C(=O)O)c1cccc(OCc2cccc(Oc3ccccc3)c2)c1 [Example 188, (2S)-3-(4-Benzyloxyphenyl)-2-[3-(3-phenoxybenzyloxy)benzoylamino]propionic acid] | Partial agonist | < 1000 |

Continued, values first:

| Functional activity PPARγ (PPARγ LBD) | Ki (GST-hPPARγ2) [nM] | Compound |
| --- | --- | --- |
| Partial agonist | < 1000 | COC(=O)[C@H](Cc1ccc(OCc2ccccc2)cc1)NC(=O)c1ccc(OCc2ccccc2Cl)cc1 [Example 20, (2S)-3-(4-Benzyloxyphenyl)-2-[4-(2-chlorobenzyloxy)benzoylamino]propionic acid methyl ester] |
| Partial agonist | < 1000 | COC(=O)[C@H](Cc1ccc(OCc2ccccc2)cc1)NC(=O)c1ccc(OCc2cccc(Cl)c2)cc1 [Example 21, (2S)-3-(4-Benzyloxyphenyl)-2-[4-(3-chlorobenzyloxy)benzoylamino]propionic acid methyl ester] |
| Antagonist | < 1000 | COC(=O)[C@H](Cc1ccc(OCc2ccccc2)cc1)NC(=O)c1ccc(OCc2ccccc2C)cc1 [Example 27, (2S)-3-(4-Benzyloxyphenyl)-2-[4-(2-methylbenzyloxy)benzoylamino]propionic acid methyl ester] |
| Agonist | < 1000 | COC(=O)[C@H](Cc1ccc(OCc2ccccc2)cc1)NC(=O)c1ccc(OCCOc2nc3ccccc3nc2C)cc1 [Example 95, (2S)-3-(4-Benzyloxyphenyl)-2-{4-[2-(3-methylquinoxalin-2-yloxy)ethoxy]benzoylamino}propionic acid methyl ester] |
| Antagonist | < 1000 | COC(=O)[C@H](Cc1ccc(OCc2ccccc2)cc1)NC(=O)c1ccc(OCCOc2cccc3cccnc23)cc1 [Example 98, (2S)-3-(4-Benzyloxyphenyl)-2-{4-[2-(quinolin-8-yloxy)ethoxy]-benzoylamino}propionic acid methyl ester] |
| Partial agonist | < 1000 | O=C(N[C@@H](Cc1ccc(OCc2ccccc2)cc1)C(=O)O)c1ccc(OCc2ccccc2)cc1 [Example 129, (2S)-2-(4-Benzyloxybenzoylamino)-3-(4-benzyloxyphenyl)propionic acid] |
| Antagonist | < 1000 | O=C(O)CCN(Cc1cccc(OCc2ccccc2)c1)C(=O)c1ccc(OCCN(Cc2ccccc2)Cc2ccccc2)cc1 [Example 162, 3-{(3-Benzyloxybenzyl)-[4-(2-dibenzylaminoethoxy)benzoyl]amino}propionic acid] |
| Antagonist | < 1000 | O=C(O)CCN(Cc1cccc(OCc2ccccc2)c1)C(=O)c1cccc(OCCN(Cc2ccccc2)Cc2ccccc2)c1 [Example 163, 3-{(3-Benzyloxybenzyl)-[3-(2-dibenzylaminoethoxy)benzoyl]amino}propionic acid] |
| Antagonist | < 1000 | O=C(O)CCN(Cc1ccc(OCc2ccccc2)cc1)C(=O)c1ccc(OCc2cccc(OCc3ccccc3)c2)cc1 [Example 176, 3-{(4-Benzyloxybenzyl)-[4-(3-benzyloxybenzyloxy)benzoyl]amino}propionic acid] |
| Partial agonist | < 1000 | Cc1nc2ccccc2nc1OCCOc1cccc(C(=O)N[C@@H](Cc2ccc(OCc3ccccc3)cc2)C(=O)O)c1 [Example 180, (2S)-3-(4-Benzyloxyphenyl)-2-{3-[2-(3-methylquinoxalin-2-yloxy)ethoxy]benzoylamino}propionic acid] |
| Partial agonist | < 1000 | O=C(N[C@@H](Cc1ccc(OCc2ccccc2)cc1)C(=O)O)c1ccc(OCc2ccc(OCc3ccccc3)cc2)cc1 [Example 183, (2S)-2-[4-(4-Benzyloxybenzyloxy)benzoylamino]-3-(4-benzyloxyphenyl)propionic acid] |
| Partial agonist | < 1000 | O=C(N[C@@H](Cc1ccc(OCc2ccccc2)cc1)C(=O)O)c1cccc(OCc2ccc(OCc3ccccc3)cc2)c1 [Example 185, (2S)-2-[3-(4-Benzyloxybenzyloxy)benzoylamino]-3-(4-benzyloxyphenyl)propionic acid] |
| Agonist | < 1000 | O=C(N[C@@H](Cc1ccc(OCc2ccccc2)cc1)C(=O)O)c1cccc(OCc2ccc(-c3ccccc3)cc2)c1 [Example 187, (2S)-3-(4-Benzyloxyphenyl)-2-[3-(biphenyl-4-ylmethoxy)benzoylamino]propionic acid] |
